From US7348025B2, “Small particle liposome aerosols for delivery of anticancer drugs” (priority 1999, dated 2008)
Where two headings read alike, the source gives them in different places.

How the values were obtained:
[1] = cited from earlier work; for T1/2: Human; for Blood or plasma concentration / Time of maximum concentration: in vivo, po
[2] = cited from earlier work
[3] = Phase I clinical trial: 9NC in bronchoalveolar lavage fluid or bronchial aspirate; assay type: in vivo, human
Procedure: Bronchoscopy was performed by a pulmonologist to obtain either bronchoalveolar lavage (BAL) fluid or bronchial aspirate for quantitation of 9NC. A BAL of the right middle lobe was performed once on volunteering patients at various times after the completion of treatment to study the amount of 9NC retained over time. Concentration of total 9NC in the BAL fluid was corrected for dilution by determining the ration of BUN in the lavage and in a plasma sample taken at the same time (13).

[4] = Tissue distribution of CPT after inhalation of CPT liposome aerosol; assay type: in vivo, Mouse; conditions: Mouse, inhaled in liposome aerosol (30 min), 16.2 μg/kg (486 ng/mouse)
Procedure: The final suspension was clear. If precipitation occurred, it was reheated to 50-60° C. The preparation was frozen in liquid nitrogen and lyophilized overnight. For use the material was dissolved in sterile water to the appropriate drug concentration, not exceeding 1.0 mg/ml for either drug. The efficiency of incorporation of drug in the liposomes was examined qualitatively by microscopic examination under polarized light. Unincorporated drug was seen as bi-refringent crystals. The efficiency of incorporation was examined by centrifugation of aqueous suspensions of liposomes on Percoll™ gradients. One-tenth ml of suspension was layered over 2 ml of gradient and centrifuged at 2000 rpm for 25-30 minutes. Liposomes layer at the water-Percoll interface, while unincorporated drug was deposited at the bottom of the tube. Many other lipids may be substituted for DLPC in the formulation and use of liposomes for delivery of drugs by aerosol (26).
The mobile phase was 30% acetonitrile and 70% of 0.1% glacial acetic acid. CPT was detected using the Waters 470 scanning fluorescence detector set to an excitation wavelength of 370 nm and an emission wavelength of 440 nm. […] The data were analyzed with the Waters Millenium software.
The deposited dose was calculated to be 486 ng per mouse. The mean concentrations in lungs and liver were similar with smaller concentrations in the other sites examined. […] Drug was cleared promptly from the lungs so that 15 minutes after stopping nebulization only negligible amounts of drug were present in the lungs. Liver, kidney and spleen had substantial amounts of drug initially which gradually diminished through the one hour of study. […] These studies indicate substantial immediate deposition of drug in the lungs with rapid clearance to the viscera. The amount of drug contributed by absorption from swallowed drug is uncertain.

[5] = Phase I clinical trial: 9NC plasma pharmacokinetics; assay type: in vivo, human
Procedure: The purpose of quantitation of 9NC from plasma and bronchoalveolar fluids was to determine systemic absorption from the alveolar-capillary exchange surface. Plasma concentrations of total 9NC and the lactone form were measured. For patients who volunteered for pharmacokinetic studies, blood was obtained at various time pints from the start of the aerosol treatment depending on the cohort. For cohort 1 used in the feasibility study blood was obtained at the end of the first week of treatment. Samples were taken at 0, 0.5, 1, 1.25, 1.5, 2, 3, 5, 7, and 24 hours from the start of the 1-hr aerosol exposure. For all other cohorts, samples were obtained at 0, 2, 5, 8, and 24 hours on days 1 and 5 of weeks 1, 4 and 8 where appropriate. Quantitation was performed either by LC/MS, for cohorts 1 and 2, or by HPLC analysis, for cohorts 3 to 6. 9NC plasma concentrations were calculated from the ratio of 9 NC to CPT as internal standard. Extraction of 9NC and its lactone form was performed using Waters C18 Sep-Pak Light cartridges immediately after separating the plasma by a method similar to that previously described (12). Minimal level of detection of 9NC/ml of plasma was 0.5 ng by LC/MS and 1.0 ng by HPLC.

[6] = human, in vivo, po; cited from earlier work
[7] = cited from earlier work; remark: listed apart in the source
[8] = system: human colon carcinoma xenografts (Squires); assay: Growth of human colon carcinoma xenografts in nude mice under liposome aerosol; assay type: in vivo
[9] = cohort 1 (0.26 mg/m^2), plasma, DLPC-9NC aerosol

CC[C@@]1(O)C(=O)OCc2c1cc1n(c2=O)Cc2cc3c([N+](=O)[O-])cccc3nc2-1 [9-NC, 9-nitro-camptothecin]
T1/2 ([1]; single oral dose 0.1 mg/kg (7 mg/dose)): (T1/2 = 2.5 h)
T1/2 ([1]; single oral dose 1.0 mg/kg (70 mg/dose)): (T1/2 = 4.9 h)
Blood or plasma concentration ([1]; 0.1 mg/kg): 483 ng/mL
Time of maximum concentration ([1]; 0.1 mg/kg): 3.4 h
Blood or plasma concentration ([1]; 1 mg/kg): 1247 ng/mL
Time of maximum concentration ([1]; 1 mg/kg): 5.3 h
T1/2 ([2]; Mouse, single oral dose 4.1 mg/kg (0.124 mg/dose)): (T1/2 = 10 h)
Blood or plasma concentration ([2]; mouse, in vivo, po, 4.1 mg/kg): 732 ng/mL
Time of maximum concentration ([2]; mouse, in vivo, po, 4.1 mg/kg): 6 min
9NC in plasma taken at the same time as BAL ([3]; Subject 1, cycle 1, day 3, 2.1 hr from start of aerosol): 43.2 ng/mL
9NC in BAL fluid ([3]; Subject 1, cycle 1, day 3, 2.1 hr from start of aerosol, cohort 1, 0.26 mg/m^2): 8.2 ng/mL
9NC in plasma taken at the same time as BAL ([3]; Subject 3, cycle 4, day 3, 4.8 hr from start of aerosol): 10.8 ng/mL
9NC in BAL fluid ([3]; Subject 3, cycle 4, day 3, 4.8 hr from start of aerosol, cohort 1, 0.26 mg/m^2): 4.3 ng/mL
9NC in plasma taken at the same time as BAL ([3]; Subject 4, cycle 2, day 4, 3.5 hr from start of aerosol): 34.2 ng/mL
9NC in BAL fluid ([3]; Subject 4, cycle 2, day 4, 3.5 hr from start of aerosol, cohort 1, 0.26 mg/m^2): 25.8 ng/mL
9NC in plasma taken at the same time as the aspirate ([3]; Subject 6, cycle 1, day 4, 1.2 hr from start of aerosol): 36.2 ng/mL
9NC in lung aspirate ([3]; Subject 6, cycle 1, day 4, 1.2 hr from start of aerosol, cohort 1, 0.26 mg/m^2): 60.7 ng/mL
Blood or plasma concentration [4]: 13.9 ng/mL
Range of peak plasma concentration of total 9NC ([5]; cohort 1 (0.26 mg/m^2), 5 patients, 1-hour DLPC-9NC aerosol, at 2 hr): 13.6 to 58.0 ng/mL
Mean (±SD) peak plasma concentration of total 9NC ([5]; cohort 1 (0.26 mg/m^2), 5 patients, 1-hour DLPC-9NC aerosol, at 2 hr from start, end of first week): 37.7 ± 20.2 ng/mL
T1/2α, mean (±SD) [5, 9]: 1.9 ± 1.4 h
T1/2β, mean (±SD) [5, 9]: 16.4 ± 10.5 h
Peak plasma levels in women compared with men ([5]; human, in vivo): higher
Time for which total 9NC plasma concentrations continued to increase ([5]; human, in vivo): 2 to 3 h
Another side effect [6]: chemical cystitis with hematuria
Main toxicity profile [6]: hematologic with anemia and neutropenia and gastrointestinal with nausea, vomiting and anorexia
T1/2 ([7]; Dog, single oral dose 1.0 mg/kg (10 mg/dose)): (T1/2 = 6.4 h)
Blood or plasma concentration ([7]; dog, in vivo, po, 1 mg/kg): 19.1 ng/mL
Time of maximum concentration ([7]; dog, in vivo, po, 1 mg/kg): 0.7 h
Increase in tumor size, escalated-dose group versus 77 μg/kg group ([8]; 77 then 153 then 307 μg/kg per day versus 77 μg/kg throughout, differences not statistically significant): slightly less increase in tumor size
Rate of tumor growth versus controls ([8]; day 28, P<0.007, Student t test, 2 tailed): reduced rate of tumor growth
Emaciation of treated mice ([8]; high dose group (up to 307 μg/kg per day)): suggesting drug toxicity
